{"source": "patent US6399047B1", "about": "“Benzoxazole derivatives for use in cosmetic compositions and for stabilizing synthetic polymers” (3V Sigma S.p.A., priority 2000, dated 2002)", "origin": "cited, not measured here", "key": {"[1]": {"conditions": "background statement"}, "[2]": {"conditions": "background statement", "remark": "listed apart in the source"}}, "data": [{"smiles": "COc1ccc(C(=O)c2ccccc2)c(O)c1", "note": "[2-Hydroxy-4-methoxybenzophenone]", "values": [{"measurement": "maximum absorption in the UV-A zone", "setting": "[1]", "result": "about 325 nm"}, {"measurement": "solubility in solvents usually used in cosmetics", "setting": "[2]", "result": "very low"}]}]}
